Measurements: paper PMC10508264, “Exploring the antioxidant, antimicrobial, cytotoxic and biothermodynamic properties of novel morpholine derivative bioactive Mn(II), Co(II) and Ni(II) complexes – combined experimental and theoretical measurements towards DNA/BSA/SARS-CoV-2 3CL^Pro” (RSC Medicinal Chemistry, 2023)

Legend:
[1] = tested on: Salmonella enterica serovar typhi; assay: Agar disc diffusion, strain C; type: cell-based; conditions: for Diameter of clear zone inhibition: control 6 mm
[2] = tested on: DNA; assay: DNA cleavage by gel electrophoresis under H2O2; type: biochemical; conditions: H2O2 environment
Excerpt: In a cellular system, DNA base pairs can be broken by a variety of mechanisms, including errors in DNA replication, generation of a heteroduplex during homologous recombination, spontaneous deamination of cytosine, and base pairs broken by mutagens or ionizing radiation, which also lead to improper base pairing and mutations. Also, metal complexes have the capability of recognizing DNA mismatches and may become vital entities for investigation and possibly for clinical applications.[55] Moreover, the cleavage of one or both DNA strands is a typical and essential process for maintaining cell viability: during DNA replication and transcription, topoisomerase enzymes correct topological issues, and various nucleases take part in repair mechanisms and DNA degradation, which is one of the distinguishing features of apoptotic programmed cell death. Similarly, several antitumor drugs have the potential to cleave DNA by inducing apoptosis, which eventually leads to cancer cell death. Conversely, molecules that can interact with DNA's major or minor grooves are known as groove-binding molecules, which disrupt and impair the function of the DNA double helix via various non-covalent interactions. The DNA nuclease properties of all samples were assessed in an H2O2 environment by the gel electrophoresis method. DNA cleavage was monitored during the conversion of supercoiled plasmids into linear and nicked DNA fragments. Also, the observed DNA nuclease efficacy for all complexes (1–3) was compared with the free ligand (HL) and CT-DNA alone. No substantial nuclease activity can be seen in the control (Fig. 1 and S13 ^†) (lane 1; DNA + H2O2) even after a lot of time has passed, and free ligand (HL) (lane 2) was monitored as immobile in an H2O2 environment. […] Consequently, it is commonly acknowledged that ROS plays a dual physiological role in controlling a variety of illnesses as well as cellular homeostasis (self-regulating processes like thermoregulation, blood glucose regulation, calcium/potassium homeostasis, and osmoregulation).[56] […] Additionally, it is widely known that the NADPH oxidase enzyme produces reactive oxygen species as part of its antibacterial effect on phagocytic cells. Nevertheless, these types of enzyme seem to be present in a variety of other cells and may have significant signalling pathway functions. When non-carcinogenic toxicity events occur, ROS has the ability to alter cell function as well as to affect the genesis of cancer at several levels. OH˙ can attack DNA, proteins, and lipids due to its high reactivity among ROS. Also, the hydroxyl radical is a key participant in free-radical-mediated hazardous reactions because of its great reactivity. […]

[3] = Hydroxyl radical scavenging assay; type: biochemical; conditions: for % Inhibition, hydroxyl radical: 230 nm
[4] = tested on: Salmonella enterica serovar typhi; assay: Agar disc diffusion, strain B; type: cell-based; conditions: for Diameter of clear zone inhibition: control 6 mm
[5] = tested on: CT-DNA; assay: DNA thermal denaturation / biothermodynamic properties; type: binding; conditions: for Tm of DNA–substance adduct: 1:1 ratio (50 μM), free CT-DNA 68 °C; for Binding constant Kr @ 298 K: 25 °C (298 K); for ΔTm: adduct vs CT-DNA alone

[Mn+2].[O-]c1ccccc1N=Cc1ccc(N2CCOCC2)cc1.[O-]c1ccccc1N=Cc1ccc(N2CCOCC2)cc1.c1ccc(-c2ccccn2)nc1 [(1)]
Inhibition% [1]: 40% | Diameter of clear zone inhibition [1]: 10 mm | DNA cleavage [2]: no considerable cleavage efficiency | % Inhibition, hydroxyl radical ([3]; 40 µM): 10.08% | % Inhibition, hydroxyl radical ([3]; 80 µM): 17.89% | % Inhibition, hydroxyl radical ([3]; 120 µM): 28.56% | % Inhibition, hydroxyl radical ([3]; 160 µM): 34.04% | % Inhibition, hydroxyl radical ([3]; 200 µM): 44.92% | % Inhibition, hydroxyl radical ([3]; 240 µM): 56.03% | Inhibition% [4]: 50% | Diameter of clear zone inhibition [4]: 12 mm | Tm of DNA–substance adduct [5]: 76 °C | Binding constant ([5]; 10 °C (283 K)): 72350 M⁻¹ | Binding constant Kr @ 298 K [5]: 18195 M⁻¹ | Binding constant ([5]; 40 °C (313 K)): 7732.1 M⁻¹ | ΔTm [5]: 8 °C

[Co+2].[O-]c1ccccc1N=Cc1ccc(N2CCOCC2)cc1.[O-]c1ccccc1N=Cc1ccc(N2CCOCC2)cc1.c1ccc(-c2ccccn2)nc1 [(2)]
Inhibition% [1]: 40% | Diameter of clear zone inhibition [1]: 10 mm | DNA cleavage [2]: complete DNA cleavage | IC50 [3]: 200 µM | % Inhibition, hydroxyl radical ([3]; 40 µM): 08.02% | % Inhibition, hydroxyl radical ([3]; 80 µM): 15.24% | % Inhibition, hydroxyl radical ([3]; 120 µM): 26.23% | % Inhibition, hydroxyl radical ([3]; 160 µM): 36.41% | % Inhibition, hydroxyl radical ([3]; 200 µM): 46.17% | % Inhibition, hydroxyl radical ([3]; 240 µM): 56.85% | Inhibition% [4]: 40% | Diameter of clear zone inhibition [4]: 10 mm | Tm of DNA–substance adduct [5]: 78 °C | Binding constant ([5]; 10 °C (283 K)): 98820 M⁻¹ | Binding constant Kr @ 298 K [5]: 18806 M⁻¹ | Binding constant ([5]; 40 °C (313 K)): 8043.3 M⁻¹ | ΔTm [5]: 10 °C

[Ni+2].[O-]c1ccccc1N=Cc1ccc(N2CCOCC2)cc1.[O-]c1ccccc1N=Cc1ccc(N2CCOCC2)cc1.c1ccc(-c2ccccn2)nc1 [(3)]
Inhibition% [1]: 45% | Diameter of clear zone inhibition [1]: 11 mm | DNA cleavage [2]: partial DNA cleavage | % Inhibition, hydroxyl radical ([3]; 40 µM): 07.67% | % Inhibition, hydroxyl radical ([3]; 80 µM): 15.86% | % Inhibition, hydroxyl radical ([3]; 120 µM): 26.12% | % Inhibition, hydroxyl radical ([3]; 160 µM): 35.43% | % Inhibition, hydroxyl radical ([3]; 200 µM): 45.56% | % Inhibition, hydroxyl radical ([3]; 240 µM): 55.75% | Inhibition% [4]: 40% | Diameter of clear zone inhibition [4]: 10 mm | Tm of DNA–substance adduct [5]: 77 °C | Binding constant ([5]; 10 °C (283 K)): 91140 M⁻¹ | Binding constant Kr @ 298 K [5]: 18207 M⁻¹ | Binding constant ([5]; 40 °C (313 K)): 7879.7 M⁻¹ | ΔTm [5]: 9 °C

Oc1ccccc1N=Cc1ccc(N2CCOCC2)cc1 [(HL), 2-(4-morpholinobenzylideneamino)phenol]
Inhibition% [1]: 45% | Diameter of clear zone inhibition [1]: 11 mm | DNA cleavage [2]: immobile | % Inhibition, hydroxyl radical ([3]; 40 µM): 07.26% | % Inhibition, hydroxyl radical ([3]; 80 µM): 14.43% | % Inhibition, hydroxyl radical ([3]; 120 µM): 25.52% | % Inhibition, hydroxyl radical ([3]; 160 µM): 33.86% | % Inhibition, hydroxyl radical ([3]; 200 µM): 40.73% | % Inhibition, hydroxyl radical ([3]; 240 µM): 50.68% | Inhibition% [4]: 33% | Diameter of clear zone inhibition [4]: 09 mm | Tm of DNA–substance adduct [5]: 74 °C | Binding constant ([5]; 10 °C (283 K)): 52575 M⁻¹ | Binding constant Kr @ 298 K [5]: 15169 M⁻¹ | Binding constant ([5]; 40 °C (313 K)): 6067.4 M⁻¹ | ΔTm [5]: 6 °C
